From patent publication US12708632B2 (Jazz Pharmaceuticals Research UK Limited, priority 2020, dated 2026)

Tested on: seizures associated with Cortical Dysplasia and Cortical Brain Malformation
Test: Open label, expanded-access program of botanically derived purified CBD: caregiver-diary seizure frequency
Format: in vivo, human patients
Set-up: reduction in atonic seizures over the treatment period / reduction in tonic seizures over the treatment period / reduction in focal seizures without impairment over the treatment period: concentration or dose not given beside the values
Conditions: for Seizure frequency: Tonic-clonic: baseline 13.0; for Seizure frequency: Myoclonic: baseline 4.0
Experimental: Subjects were required to be on one or more AEDs at stable doses for a minimum of two weeks prior to baseline and to have stable vagus nerve stimulation (VNS) settings and ketogenic diet ratios for a minimum of four weeks prior to baseline.
Dose was then increased weekly by 5 mg/kg/day to a goal of 20 to 25 mg/kg/day.
A maximum dose of 50 mg/kg/day could be utilised for patients who were tolerating the medication but had not achieved seizure control; these patients had further weekly titration by 5 mg/kg/day.
Modifications were made to concomitant AEDs as per clinical indication.
Seizure frequency, intensity, and duration were recorded by caregivers in a diary during a baseline period of at least 28 days. Changes in seizure frequency relative to baseline were calculated after at least 2 weeks and at defined timepoints of treatment.
Patients may be defined as responders if they had more than 50% reduction in seizure frequency compared to baseline. the percent change in seizure frequency was calculated as follows: […]
The percent change of seizure frequency may be calculated for any time interval where seizure number has been recorded. For the purpose of this example the percent change of seizure frequency for the end of the treatment period was calculated as follows: […]

C=C(C)[C@@H]1CCC(C)=C[C@H]1c1c(O)cc(CCCCC)cc1O [CBD, cannabidiol]
Seizure frequency: Atonic (Patient 1, 2 weeks, CBD 10.0 mg/kg/day, baseline 2.0): 0.0 seizures per week | Seizure frequency: Tonic-clonic (Patient 1, 2 weeks, CBD 10.0 mg/kg/day): 12.0 seizures per week | Seizure frequency: Atonic (Patient 1, 4 weeks, CBD 20.0 mg/kg/day, baseline 2.0): 1.0 seizures per week | Seizure frequency: Tonic-clonic (Patient 1, 4 weeks, CBD 20.0 mg/kg/day): 25.0 seizures per week | Seizure frequency: Atonic (Patient 1, 8 weeks, CBD 25.0 mg/kg/day, baseline 2.0): 3.0 seizures per week | Seizure frequency: Tonic-clonic (Patient 1, 8 weeks, CBD 25.0 mg/kg/day): 17.0 seizures per week | Seizure frequency: Atonic (Patient 1, 12 weeks, CBD 25.0 mg/kg/day, baseline 2.0): 1.0 seizures per week | Seizure frequency: Tonic-clonic (Patient 1, 12 weeks, CBD 25.0 mg/kg/day): 16.0 seizures per week | reduction in atonic seizures over the treatment period (Patient 1, treated for 12 weeks, vs baseline): 50% | Seizure frequency: Tonic (Patient 2, 12 weeks, CBD 5.0 mg/kg/day, baseline 140.0): 70.0 seizures per week | reduction in tonic seizures over the treatment period (Patient 2, treated for 12 weeks, vs baseline): 50% | Seizure frequency: Myoclonic (Patient 3, 4 weeks, CBD 20.0 mg/kg/day): 0.0 seizures per week | Seizure frequency: Tonic (Patient 3, 4 weeks, CBD 20.0 mg/kg/day, baseline 20.0): 4.0 seizures per week | Seizure frequency: Atonic (Patient 3, 4 weeks, CBD 20.0 mg/kg/day, baseline 24.0): 0.0 seizures per week | Seizure frequency: Myoclonic (Patient 3, 8 weeks, CBD 25.0 mg/kg/day): 0.0 seizures per week | Seizure frequency: Tonic (Patient 3, 8 weeks, CBD 25.0 mg/kg/day, baseline 20.0): 200.0 seizures per week | Seizure frequency: Atonic (Patient 3, 8 weeks, CBD 25.0 mg/kg/day, baseline 24.0): 0.0 seizures per week | Seizure frequency: Myoclonic (Patient 3, 12 weeks, CBD 14.8 mg/kg/day): 56.0 seizures per week | Seizure frequency: Tonic (Patient 3, 12 weeks, CBD 14.8 mg/kg/day, baseline 20.0): 140.0 seizures per week | Seizure frequency: Atonic (Patient 3, 12 weeks, CBD 14.8 mg/kg/day, baseline 24.0): 12.0 seizures per week | Seizure frequency: Myoclonic (Patient 3, 24 weeks, CBD 9.7 mg/kg/day): 28.0 seizures per week | Seizure frequency: Tonic (Patient 3, 24 weeks, CBD 9.7 mg/kg/day, baseline 20.0): 140.0 seizures per week | Seizure frequency: Atonic (Patient 3, 24 weeks, CBD 9.7 mg/kg/day, baseline 24.0): 12.0 seizures per week | Seizure frequency: Myoclonic (Patient 3, 36 weeks, CBD 10.9 mg/kg/day): 0.0 seizures per week | Seizure frequency: Tonic (Patient 3, 36 weeks, CBD 10.9 mg/kg/day, baseline 20.0): 60.0 seizures per week | Seizure frequency: Atonic (Patient 3, 36 weeks, CBD 10.9 mg/kg/day, baseline 24.0): 16.0 seizures per week | Seizure frequency: Myoclonic (Patient 3, 48 weeks, CBD 10.6 mg/kg/day): 20.0 seizures per week | Seizure frequency: Tonic (Patient 3, 48 weeks, CBD 10.6 mg/kg/day, baseline 20.0): 40.0 seizures per week | Seizure frequency: Atonic (Patient 3, 48 weeks, CBD 10.6 mg/kg/day, baseline 24.0): 8.0 seizures per week | Seizure frequency: Myoclonic (Patient 3, 60 weeks, CBD 17.1 mg/kg/day): 1.0 seizures per week | Seizure frequency: Tonic (Patient 3, 60 weeks, CBD 17.1 mg/kg/day, baseline 20.0): 28.0 seizures per week | Seizure frequency: Atonic (Patient 3, 60 weeks, CBD 17.1 mg/kg/day, baseline 24.0): 1.0 seizures per week | Seizure frequency: Myoclonic (Patient 3, 72 weeks, CBD 16.2 mg/kg/day): 1.0 seizures per week | Seizure frequency: Tonic (Patient 3, 72 weeks, CBD 16.2 mg/kg/day, baseline 20.0): 40.0 seizures per week | Seizure frequency: Atonic (Patient 3, 72 weeks, CBD 16.2 mg/kg/day, baseline 24.0): 1.0 seizures per week | Seizure frequency: Myoclonic (Patient 3, 96 weeks, CBD 24.5 mg/kg/day): 16.0 seizures per week | Seizure frequency: Tonic (Patient 3, 96 weeks, CBD 24.5 mg/kg/day, baseline 20.0): 28.0 seizures per week | Seizure frequency: Atonic (Patient 3, 96 weeks, CBD 24.5 mg/kg/day, baseline 24.0): 2.0 seizures per week | Seizure frequency: Myoclonic (Patient 3, 120 weeks, CBD 17.7 mg/kg/day): 16.0 seizures per week | Seizure frequency: Tonic (Patient 3, 120 weeks, CBD 17.7 mg/kg/day, baseline 20.0): 6.0 seizures per week | Seizure frequency: Atonic (Patient 3, 120 weeks, CBD 17.7 mg/kg/day, baseline 24.0): 4.0 seizures per week | Seizure frequency: Myoclonic (Patient 3, 132 weeks, CBD 17.3 mg/kg/day): 16.0 seizures per week | Seizure frequency: Tonic (Patient 3, 132 weeks, CBD 17.3 mg/kg/day, baseline 20.0): 6.0 seizures per week | Seizure frequency: Atonic (Patient 3, 132 weeks, CBD 17.3 mg/kg/day, baseline 24.0): 4.0 seizures per week | Seizure frequency: Myoclonic (Patient 3, 144 weeks, CBD 19.9 mg/kg/day): 40.0 seizures per week | Seizure frequency: Tonic (Patient 3, 144 weeks, CBD 19.9 mg/kg/day, baseline 20.0): 56.0 seizures per week | Seizure frequency: Atonic (Patient 3, 144 weeks, CBD 19.9 mg/kg/day, baseline 24.0): 2.0 seizures per week | reduction in atonic seizures over the treatment period (Patient 3, treated for 144 weeks, vs baseline): 91.7% | Seizure frequency: Tonic (Patient 4, 4 weeks, CBD 20.0 mg/kg/day, baseline 196.0): 60.0 seizures per week | Seizure frequency: Tonic (Patient 4, 8 weeks, CBD 25.0 mg/kg/day, baseline 196.0): 40.0 seizures per week | Seizure frequency: Tonic (Patient 4, 12 weeks, CBD 30.0 mg/kg/day, baseline 196.0): 80.0 seizures per week | Seizure frequency: Tonic (Patient 4, 24 weeks, CBD 50.0 mg/kg/day, baseline 196.0): 24.0 seizures per week | Seizure frequency: Tonic (Patient 4, 36 weeks, CBD 50.0 mg/kg/day, baseline 196.0): 32.0 seizures per week | Seizure frequency: Tonic (Patient 4, 48 weeks, CBD 50.0 mg/kg/day, baseline 196.0): 54.0 seizures per week | Seizure frequency: Tonic (Patient 4, 60 weeks, CBD 50.0 mg/kg/day, baseline 196.0): 24.0 seizures per week | Seizure frequency: Tonic (Patient 4, 72 weeks, CBD 49.0 mg/kg/day, baseline 196.0): 24.0 seizures per week | Seizure frequency: Tonic (Patient 4, 84 weeks, CBD 46.0 mg/kg/day, baseline 196.0): 36.0 seizures per week
